Experimental data from the supplement of paper PMC10307832.

Tests used:
Experiment in all cases: relative viability (nuclei count vs DMSO), 5 days (fraction); higher = more cells survive
[1] = compound: Nc1nc(Nc2ccc3c(c2)CC[C@@H](N2CCCC2)CC3)nn1-c1cc2c(nn1)-c1ccccc1CCC2 [Bemcentinib] + Nc1nc2[nH]cc(CCc3ccc(C(=O)N[C@@H](CCC(=O)O)C(=O)O)cc3)c2c(=O)[nH]1 [Pemetrexed] (partner 0.2 µM)
How it was run: (§1)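 Lung cancer cell lines in 1536-well plates were dosed by pin tool the day after seeding, either with one drug alone or with a fixed anchor-drug dose plus five library-drug doses (not always all listed) in √10 steps. After 5 days, cells were fixed and their nuclei stained in one step (final 0.05% Triton X-100, 1% formaldehyde, 1 ug/ml Hoechst), then counted on 4× images. Relative viability is the nuclei count in treated wells divided by that in vehicle wells. Values are medians of duplicate plates.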

[2] = compound: Nc1nc(Nc2ccc3c(c2)CC[C@@H](N2CCCC2)CC3)nn1-c1cc2c(nn1)-c1ccccc1CCC2 [Bemcentinib] + NC(=O)Nc1cc(-c2cccc(F)c2)sc1C(=O)N[C@H]1CCCNC1 [AZD7762] (partner 0.2 µM)
How it was run: as §1

[3] = compound: Nc1nc(Nc2ccc3c(c2)CC[C@@H](N2CCCC2)CC3)nn1-c1cc2c(nn1)-c1ccccc1CCC2 [Bemcentinib] + COc1cccc2cc(-c3nc([C@H]4CC[C@H](C(=O)O)CC4)n4ncnc(N)c34)[nH]c12 [OSI-027] (partner 0.5 µM)
How it was run: as §1

[4] = compound: CNC(=O)c1ccccc1Sc1ccc2c(/C=C/c3ccccn3)n[nH]c2c1 [Axitinib] + C[C@]1(O)C[C@@H](c2nc(-c3ccc4ccc(-c5ccccc5)nc4c3)c3c(N)nccn32)C1 [Linsitinib] (partner 1 µM)
How it was run: as §1

| Cell Line | relative viability ([1]; first compound 0.04 µM) | relative viability ([1]; first compound 0.1265 µM) | relative viability ([1]; first compound 0.4 µM) | relative viability ([1]; first compound 1.265 µM) | relative viability ([1]; first compound 4 µM) | relative viability ([2]; first compound 0.04 µM) | relative viability ([2]; first compound 0.1265 µM) | relative viability ([2]; first compound 0.4 µM) | relative viability ([2]; first compound 1.265 µM) | relative viability ([2]; first compound 4 µM) | relative viability ([3]; first compound 0.04 µM) | relative viability ([3]; first compound 0.1265 µM) | relative viability ([3]; first compound 0.4 µM) | relative viability ([3]; first compound 1.265 µM) | relative viability ([3]; first compound 4 µM) | relative viability ([4]; first compound 0.005 µM) | relative viability ([4]; first compound 0.01581 µM) | relative viability ([4]; first compound 0.05 µM) | relative viability ([4]; first compound 0.1581 µM) | relative viability ([4]; first compound 0.5 µM) |
| --- | --- | --- | --- | --- | --- | --- | --- | --- | --- | --- | --- | --- | --- | --- | --- | --- | --- | --- | --- | --- |
| HOP-62 | 0.348 | 0.357 | 0.385 | 0.37 | 0.359 | 0.531 | 0.505 | 0.599 | 0.527 | 0.511 | 0.958 | 0.904 | 0.845 | 0.853 | 0.9 | 0.961 | 0.977 | 0.777 | 0.894 | 1.06 |
| NCI-H441 | 0.24 | 0.243 | 0.267 | 0.245 | 0.275 | 1.33 | 1.29 | 1.1 | 1.41 | 1.29 | 0.583 | 0.695 | 0.765 | 0.558 | 0.659 | 0.593 | 0.52 | 0.519 | 0.582 | 0.576 |
| LC-2-ad | 0.252 | 0.28 | 0.258 | 0.262 | 0.273 | 0.807 | 0.838 | 1.01 | 0.831 | 0.84 | 0.892 | 0.906 | 0.761 | 0.964 | 0.927 | 0.843 | 0.844 | 0.887 | 0.833 | 1.01 |
| NCI-H838 | 0.229 | 0.267 | 0.272 | 0.257 | 0.262 | 0.942 | 0.975 | 1.02 | 0.998 | 0.917 | 0.38 | 0.434 | 0.371 | 0.442 | 0.372 | 1.04 | 1.01 | 1.1 | 1 | 1.19 |
| NCI-H1944 | 0.633 | 0.66 | 0.649 | 0.589 | 0.634 | 0.645 | 0.563 | 0.488 | 0.452 | 0.32 | 0.43 | 0.483 | 0.407 | 0.413 | 0.41 | 1.24 | 1.16 | 1.16 | 1.16 | 1.24 |
| CAL-12T | 1.11 | 1.47 | 1.09 | 1.1 | 1.13 | 0.654 | 0.757 | 0.618 | 0.636 | 0.485 | 0.6 | 0.912 | 0.77 | 0.769 | 0.755 | 0.873 | 0.903 | 0.748 | 0.911 | 0.712 |
| EPLC-272H | 0.313 | 0.337 | 0.371 | 0.319 | 0.291 | 0.236 | 0.162 | 0.186 | 0.168 | 0.197 | 0.342 | 0.266 | 0.318 | 0.244 | 0.361 | 1.33 | 1.1 | 1.32 | 1.12 | 1.07 |
| NCI-H1915 | 0.48 | 0.533 | 0.538 | 0.489 | 0.443 | 0.671 | 0.695 | 0.701 | 0.726 | 0.652 | 0.625 | 0.661 | 0.635 | 0.59 | 0.696 | 1.03 | 1.12 | 1.09 | 1.13 | 1.13 |
| NCI-H2087 | 0.772 | 0.798 | 0.64 | 0.611 | 0.685 | 1.4 | 1.41 | 1.42 | 1.49 | 1.47 | 0.495 | 0.687 | 0.589 | 0.544 | 0.571 | 1.06 | 0.905 | 0.96 | 0.699 | 0.968 |
| LCLC-97TM1 | 0.16 | 0.177 | 0.182 | 0.177 | 0.177 | 0.183 | 0.298 | 0.186 | 0.28 | 0.309 | 0.649 | 0.527 | 0.538 | 0.542 | 0.598 | 0.187 | 0.226 | 0.199 | 0.179 | 0.186 |
| NCI-H1734 | 0.419 | 0.459 | 0.398 | 0.402 | 0.448 | 0.516 | 0.611 | 0.613 | 0.518 | 0.441 | 0.643 | 0.66 | 0.552 | 0.583 | 0.591 | 1.05 | 0.829 | 0.977 | 0.903 | 1.04 |
| EKVX | 0.355 | 0.42 | 0.422 | 0.401 | 0.333 | 0.623 | 0.719 | 0.759 | 0.723 | 0.717 | 0.57 | 0.669 | 0.753 | 0.793 | 0.824 | 1.04 | 0.849 | 0.946 | 0.997 | 1.08 |
| 201T | 0.307 | 0.361 | 0.326 | 0.361 | 0.327 | 0.643 | 0.668 | 0.605 | 0.611 | 0.625 | 0.599 | 1.02 | 0.778 | 0.709 | 0.801 | 1.08 | 1 | 1.02 | 0.965 | 0.966 |
